Test results reported in patent US20250270180A1, “MEK INHIBITORS AND THERAPEUTIC USES THEREOF” (Immuneering Corporation, priority 2020, published 2025).

Tested on: A549 pERK
Experiment: A549-pERK, 2 h (quantitative Western, Jess)
Format: cell-based
Conditions: Homo sapiens, phospho:total ratio normalized to DMSO control
Method: A549 or […] cells were treated in duplicate for two hours with compounds at varying concentrations. After two hours, the cells were lysed, snap frozen, and stored at −80° C. After storage, the lysate was quantified with the Bradford assay. Before the lysates were prepared to run on the Jess, the lysates were diluted to 1 mg/mL for pERK analysis and 1.5 mg/mL pMEK analysis using quantitative Western blotting. ERK and MEK phosphorylation levels were estimated by taking the ratio of phospho-protein to total protein and normalizing to the DMSO control. The results of this study are described in Tables 14-16.

Row | SMILES | activity at 0.01 µM (A549, 2 h, 10 nM) | activity at 10 µM (A549, 2 h) | activity at 0.01 µM (A549, 10 nM)
1 | CNS(=O)(=O)Nc1cccc(Cc2c(CNCC3CC3)c3ccc(OC(=O)N(C)C)cc3oc2=O)c1F [Compound 26] | 94.2% | – | –
2 | CNS(=O)(=O)Nc1cccc(Cc2c(CNCc3ccncc3)c3ccc(OC(=O)N(C)C)cc3oc2=O)c1F [Compound 29] | 96% | – | –
3 | CNS(=O)(=O)Nc1cccc(Cc2c(CNc3ccccc3)c3ccc(OC(=O)N(C)C)cc3oc2=O)c1F [Compound 30] | 54.3% | – | –
4 | CNS(=O)(=O)Nc1cccc(Cc2c(CNc3ccn[nH]3)c3ccc(OC(=O)N(C)C)cc3oc2=O)c1F [Compound 31] | 66.7% | – | –
5 | CNS(=O)(=O)Nc1cccc(Cc2c(CNCc3ccco3)c3ccc(OC(=O)N(C)C)cc3oc2=O)c1F [Compound 56] | 92.9% | – | –
6 | CNS(=O)(=O)Nc1cccc(Cc2c(CNCC(=O)N(C)C)c3ccc(OC(=O)N(C)C)cc3oc2=O)c1F [Compound 57] | 106% | 7.33% | –
7 | CNS(=O)(=O)Nc1cccc(Cc2c(CNCCN(C)C)c3ccc(OC(=O)N(C)C)cc3oc2=O)c1F [Compound 58] | 98.7% | – | –
8 | CNS(=O)(=O)Nc1cccc(Cc2c(CNCc3cccc(C(F)(F)F)c3)c3ccc(OC(=O)N(C)C)cc3oc2=O)c1F [Compound 59] | 105% | – | –
9 | CNS(=O)(=O)Nc1cccc(Cc2c(CN3CCN(C(C)C)CC3)c3ccc(OC(=O)N(C)C)cc3oc2=O)c1F [Compound 62] | 73% | – | –
10 | CNS(=O)(=O)Nc1cccc(Cc2c(CNC(C)c3ccccc3)c3ccc(OC(=O)N(C)C)cc3oc2=O)c1F (centres unmarked) [Compound 63] | 88% | – | –
11 | CNS(=O)(=O)Nc1cccc(Cc2c(CN3CCN(C4CC4)CC3)c3ccc(OC(=O)N(C)C)cc3oc2=O)c1F [Compound 64] | 73% | – | –
12 | CNS(=O)(=O)Nc1cccc(Cc2c(CN3CCN(C(=O)c4ccccc4)CC3)c3ccc(OC(=O)N(C)C)cc3oc2=O)c1F [Compound 65] | 100% | – | –
13 | CNS(=O)(=O)Nc1cccc(Cc2c(CNCCC(F)(F)F)c3ccc(OC(=O)N(C)C)cc3oc2=O)c1F [Compound 66] | 104% | – | –
14 | CNS(=O)(=O)Nc1cccc(Cc2c(CN3CCN(S(C)(=O)=O)CC3)c3ccc(OC(=O)N(C)C)cc3oc2=O)c1F [Compound 68] | 68.9% | – | –
15 | CCN1CCN(Cc2c(Cc3cccc(NS(=O)(=O)NC)c3F)c(=O)oc3cc(OC(=O)N(C)C)ccc23)CC1=O [Compound 69] | 101% | – | –
16 | CNS(=O)(=O)Nc1cccc(Cc2c(CNCCCCO)c3ccc(OC(=O)N(C)C)cc3oc2=O)c1F [Compound 71] | 99.4% | – | –
17 | C#CCN(C)Cc1c(Cc2cccc(NS(=O)(=O)NC)c2F)c(=O)oc2cc(OC(=O)N(C)C)ccc12 [Compound 76] | 62.1% | – | –
18 | CNS(=O)(=O)Nc1cccc(Cc2c(CNc3ccn(C)n3)c3ccc(OC(=O)N(C)C)cc3oc2=O)c1F [Compound 89] | 83.7% | – | –
19 | CNS(=O)(=O)Nc1cccc(Cc2c(CNc3cn[nH]c3)c3ccc(OC(=O)N(C)C)cc3oc2=O)c1F [Compound 92] | 93.8% | – | –
20 | CNS(=O)(=O)Nc1cccc(Cc2c(CNc3nccs3)c3ccc(OC(=O)N(C)C)cc3oc2=O)c1F [Compound 94] | 93.5% | – | –
21 | CNS(=O)(=O)Nc1cccc(Cc2c(CN(C)c3cccc(Cl)c3)c3ccc(OC(=O)N(C)C)cc3oc2=O)c1F [Compound 95] | 80.2% | – | –

Row | SMILES | activity at 0.01 µM (A549, 2 h, 10 nM) | activity at 10 µM (A549, 2 h) | activity at 0.01 µM (A549, 10 nM)
22 | CNS(=O)(=O)Nc1cccc(Cc2c(CNc3ccnn3C)c3ccc(OC(=O)N(C)C)cc3oc2=O)c1F [Compound 96] | 102% | – | –
23 | CNS(=O)(=O)Nc1cccc(Cc2c(CN(C)c3ccccc3Cl)c3ccc(OC(=O)N(C)C)cc3oc2=O)c1F [Compound 99] | 98.9% | – | –
24 | CNS(=O)(=O)Nc1nccc(Cc2c(CN3CCNCC3)c3ccc(Oc4ncccn4)cc3oc2=O)c1F [Compound 104] | – | – | 77.3%
25 | CNS(=O)(=O)Nc1cccc(Cc2c(CNC(N)=O)c3ccc(OC(=O)N(C)C)cc3oc2=O)c1F [Compound 105] | – | 7.39% | –
26 | CCS(=O)(=O)Nc1cccc(Cc2c(CN(C)C)c3ccc(OC(=O)N(C)C)cc3oc2=O)c1F [Compound 120] | 77.2% | – | –
27 | CNS(=O)(=O)Nc1nccc(Cc2c(CN(C)C)c3ccc(OC(=O)N(C)C)cc3oc2=O)c1F [Compound 124] | 94.6% | – | –
28 | CNS(=O)(=O)Nc1cccc(Cc2c(CN(C)C)c3ccc(OC(=O)N4CCN(C)CC4)cc3oc2=O)c1F [Compound 127] | 110% | – | –
29 | CNS(=O)(=O)Nc1cccc(Cc2c(CN(C)C)c3ccc(Oc4ncccn4)cc3oc2=O)c1F [Compound 129] | – | – | 92.2%
30 | CNS(=O)(=O)Nc1cccc(Cc2c(CNCC(=O)O)c3cc(Cl)c(OC(=O)N(C)C)cc3oc2=O)c1F [Compound 133] | 88.1% | 23.4% | –
31 | CNS(=O)(=O)Nc1cccc(Cc2c(CN3CC4CC3CN4)c3ccc(OC(=O)N(C)C)cc3oc2=O)c1F (centres unmarked) [Compound 138] | 96.9% | – | –
32 | CNS(=O)(=O)Nc1cccc(Cc2c(CN3CC(C)C3)c3ccc(OC(=O)N(C)C)cc3oc2=O)c1F [Compound 142] | 94.6% | – | –
33 | CNS(=O)(=O)Nc1cccc(Cc2c(CN3CC(C)(C)C3)c3ccc(OC(=O)N(C)C)cc3oc2=O)c1F [Compound 143] | 104% | – | –
34 | CNS(=O)(=O)Nc1cccc(Cc2c(CN3CC(Cl)C3)c3ccc(OC(=O)N(C)C)cc3oc2=O)c1F [Compound 145] | 104% | – | –
35 | CNS(=O)(=O)Nc1nccc(Cc2c(CN3CC(F)(F)C3)c3ccc(OC(=O)N(C)C)cc3oc2=O)c1F [Compound 149] | 69.1% | – | –
36 | CNS(=O)(=O)Nc1cccc(Cc2c(CN3CC4(COC4)C3)c3ccc(OC(=O)N(C)C)cc3oc2=O)c1F [Compound 152] | 70.5% | – | –
37 | CNS(=O)(=O)Nc1cccc(Cc2c(CN3CC(N(C)C)C3)c3ccc(OC(=O)N(C)C)cc3oc2=O)c1F [Compound 154] | 64% | – | –
38 | CN(C)C(=O)Oc1ccc2c(CN3CCC3)c(Cc3ccnc(NS(=O)(=O)C4CC4)c3F)c(=O)oc2c1 [Compound 155] | 84.9% | – | –
39 | CNS(=O)(=O)Nc1cccc(Cc2c(CN3CCNC(=O)CC3)c3ccc(OC(=O)N(C)C)cc3oc2=O)c1F [Compound 158] | 80% | – | –
40 | CNS(=O)(=O)Nc1cccc(Cc2c(CN3CCC4(CN(C)C4)C3)c3ccc(OC(=O)N(C)C)cc3oc2=O)c1F [Compound 159] | 82.7% | – | –
41 | CNC1CN(Cc2c(Cc3cccc(NS(=O)(=O)NC)c3F)c(=O)oc3cc(OC(=O)N(C)C)ccc23)C1 [Compound 164] | 102% | – | –
42 | CNS(=O)(=O)Nc1cccc(Cc2c(CN3CC(N)C3)c3ccc(OC(=O)N(C)C)cc3oc2=O)c1F [Compound 165] | 104% | – | –

Row | SMILES | activity at 0.01 µM (A549, 2 h, 10 nM) | activity at 10 µM (A549, 2 h) | activity at 0.01 µM (A549, 10 nM)
43 | CCN(C)Cc1c(Cc2cccc(NS(=O)(=O)CC)c2F)c(=O)oc2cc(OC(=O)N(C)C)c(Cl)cc12 [Compound 166] | 60.9% | – | –
44 | CNS(=O)(=O)Nc1cccc(Cc2c(CN3CC(C#N)C3)c3ccc(OC(=O)N(C)C)cc3oc2=O)c1F [Compound 172] | 111% | – | –
45 | CNS(=O)(=O)Nc1cccc(Cc2c(CN3CC(C(N)=O)C3)c3ccc(OC(=O)N(C)C)cc3oc2=O)c1F [Compound 173] | 97.7% | – | –
46 | CNS(=O)(=O)Nc1cccc(Cc2c(CO)c3ccc(OC(=O)N(C)C)cc3oc2=O)c1F [Compound 180] | 75% | – | –
47 | CNS(=O)(=O)Nc1cccc(Cc2c(CN3CCOCC3=O)c3ccc(OC(=O)N(C)C)cc3oc2=O)c1F [Compound 181] | 100% | 22.2% | –
48 | CNS(=O)(=O)Nc1cccc(Cc2c(CCNCC3CC3)c3ccc(OC(=O)N(C)C)cc3oc2=O)c1F [Compound 186] | 80.1% | 0.74% | –
49 | CNS(=O)(=O)Nc1cccc(Cc2c(CNc3ccc(OC)nc3)c3ccc(OC(=O)N(C)C)cc3oc2=O)c1F [Compound 193] | 90.7% | – | –
50 | CNS(=O)(=O)Nc1cccc(Cc2c(CC(=O)N3CCN(C)CC3)c3ccc(OC(=O)N(C)C)cc3oc2=O)c1F [Compound 195] | 113% | – | –
51 | CNS(=O)(=O)Nc1cccc(Cc2c(CC(=O)N(C)C)c3ccc(OC(=O)N(C)C)cc3oc2=O)c1F [Compound 196] | 106% | – | –
52 | CNS(=O)(=O)Nc1cccc(Cc2c(CC(=O)N(C)CC#N)c3ccc(OC(=O)N(C)C)cc3oc2=O)c1F [Compound 198] | 109% | – | –
53 | CNS(=O)(=O)Nc1cccc(Cc2c(CC(=O)Nc3ccon3)c3ccc(OC(=O)N(C)C)cc3oc2=O)c1F [Compound 201] | 119% | – | –
54 | CNS(=O)(=O)Nc1cccc(Cc2c(CC(=O)Nc3ccn[nH]3)c3ccc(OC(=O)N(C)C)cc3oc2=O)c1F [Compound 202] | 119% | – | –
55 | CNS(=O)(=O)Nc1cccc(Cc2c(CN(C)C)c3ccc(OC(=S)N(C)C)cc3oc2=O)c1F [Compound 204] | – | – | 83.4%
56 | CCC(=O)NCc1c(Cc2cccc(NS(=O)(=O)NC)c2F)c(=O)oc2cc(OC(=O)N(C)C)ccc12 [Compound 207] | 97.4% | 11.3% | –
57 | CNS(=O)(=O)Nc1cccc(Cc2c(CNC(=O)C(C)C)c3ccc(OC(=O)N(C)C)cc3oc2=O)c1F [Compound 208] | 105% | 23.6% | –
58 | CNS(=O)(=O)Nc1cccc(Cc2c(CNC(=O)c3c[nH]nn3)c3ccc(OC(=O)N(C)C)cc3oc2=O)c1F [Compound 211] | 121% | 70.8% | –
59 | CNS(=O)(=O)Nc1cccc(Cc2c(CNC(=O)C(C)(C)O)c3ccc(OC(=O)N(C)C)cc3oc2=O)c1F [Compound 212] | 100% | 13% | –
60 | CNS(=O)(=O)Nc1cccc(Cc2c(CNC(=O)c3nn[nH]n3)c3ccc(OC(=O)N(C)C)cc3oc2=O)c1F [Compound 213] | 100% | 70.1% | –
61 | CNS(=O)(=O)Nc1cccc(Cc2c(CC(=O)NC3CCOCC3)c3ccc(OC(=O)N(C)C)cc3oc2=O)c1F [Compound 215] | 100% | 11.8% | –
